# In EP0641858A1, “SERUM CALCIUM DEPRESSING FACTOR” (Chugai Seiyaku Kabushiki Kaisha, priority 1991, dated 1992):
# Non-standard residues stand in square brackets, D forms with d. Residues, ends and D or L forms follow the SMILES beside them. *: point of attachment. Sta = CC(C)C[C@H](N)[C@@H](O)CC(=O)O; Isovaleryl = CC(C)CC(=O)*
# Experiments:
# [1] = target: T1, serum calcium decreasing factor of pig origin (from porcine pancreas), N-terminal sequence SEQ ID NO: 1 (Sus scrofa, UniProt F1SUW2, E34Q/S46R); assay: Effect of protease inhibitors on protease activity (azo-casein substrate, OD at 340 nm); type: biochemical
# T1 sequence (F1SUW2 30-268 E34Q/S46R): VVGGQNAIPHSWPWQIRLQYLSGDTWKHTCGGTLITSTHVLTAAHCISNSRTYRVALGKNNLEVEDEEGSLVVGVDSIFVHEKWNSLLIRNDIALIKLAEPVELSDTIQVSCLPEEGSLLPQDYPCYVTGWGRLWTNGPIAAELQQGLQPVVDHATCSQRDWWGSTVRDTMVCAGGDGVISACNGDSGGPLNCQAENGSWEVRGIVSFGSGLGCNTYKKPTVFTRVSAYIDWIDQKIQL
# Method: In steps of the purification, since it was observed that a fragment which was assumed to be a degraded fragment of the serum calcium decreasing factor protein, was generated, it is assumed that this serum calcium decreasing factor has proteolytic activity. An effect of various protease inhibitors against the serum calcium decreasing factor protein of this invention was tested as follows: 1 mg/ml azo-casein was used as a substrate, incubation was conducted at temperature of 37°C for 30 min in 0.25 ml, 1 ml of 5% trichloroacetic acid was added thereto, and then the supernatant from centrifugation of the reaction products was measured for OD at 340 nm. The resulting value was used as proteolytic activity. The effect of each protease inhibitor is shown based upon a percentage where proteolytic activity of a control sample without the inhibitor is 100%.
# The protease inhibitors used include phenylmethansulfonyl fluoride (PMSF), which is a serin-protease inhibitor; (4-amidinophenyl)-methanesulfonyl fluoride (APMSF), which is a trypsin-type serin-protease inhibitor; leupetin, which is a trypsin-type serin-protease-thiolprotease inhibitor; chymostatin, which is a chymotrypsin-type serinprotease inhibitor; N-[N-3-trans-carboxyoxirane-2-carbonyl)-L-leucyl]agmatine (E-64), which is a thiolprotease inhibitor; pepstatin, which is an acid protease inhibitor; trypsin inhibitors which are inhibitors of trypsin, Xa-factor, plasmin and plasmakallikrein; and aprotinin, which is an inhibitor of trypsin and kallikrein.
# [2] = Serum calcium lowering in mice, in vivo assay; details: PMSF alone administered to mice (control of Fig. 5)
# Method: Male BALB/c mice of 4 to 6 weeks old were starved for 18 hours and 0.1M Tris-HCl buffer (pH 7.5) or 0.1M Tris-HCl buffer containing each of the three peaks dissolved therein was administered through a mouse tail vein at a dose of 100 µl per 20g of the body weight. After 4 hours, blood was drawn from the heart under ether anesthesia and serum was obtained. The serum calcium concentration was measured according to the orth-cresol phthalein complexion method.
# Next, lowering of serum calcium concentration by serum calcium decreasing factor in an in vivo assay on mice was tested using serum calcium decreasing factor treated with PMSF and non-treated serum calcium decreasing factor. In the figure, open circles show the result of non-treated serum calcium decreasing factor, closed circles show the result of serum calcium decreasing factor treated with PMSF, and closed boxes show the result (control) wherein PMSF alone was administrated in an amount provided when serum calcium decreasing factor was administrated in an amount shown on the absissa.
# [3] = inhibitor 100 µM, 1 mg/ml azo-casein, 37°C, 30 min, control without inhibitor = 100%, read-out: Activity of Protease (per Activity of Control%)
smiles,measurement,setting,value
"O=S(=O)(F)Cc1ccccc1 [PMSF, phenylmethansulfonyl fluoride]",inhibition of protease activity (in words),[1]; inhibitor 1 mM,inhibited
same,Activity of Protease (per Activity of Control%),"[1]; inhibitor 1 mM, 1 mg/ml azo-casein, 37°C, 30 min, control without inhibitor = 100%",8.8%
same,lowering of serum calcium,[2],did not lower serum calcium
CC(=O)N[C@@H](CC(C)C)C(=O)N[C@@H](CC(C)C)C(=O)N[C@H](C=O)CCCNC(=N)N [Leupeptin],inhibition of protease activity (in words),[1]; inhibitor 100 µM,partially inhibited
same,remaining activity at 100 µM,[1]; [3],86.8%
"N=C(N)c1ccc(CS(=O)(=O)F)cc1 [APMSF, (4-amidinophenyl)-methanesulfonyl fluoride]",inhibition of protease activity (in words),[1]; inhibitor 50 µM,not being inhibited
same,Activity of Protease (per Activity of Control%),"[1]; inhibitor 50 µM, 1 mg/ml azo-casein, 37°C, 30 min, control without inhibitor = 100%",107.0%
"CC(C)CC(NC(=O)C1OC1C(=O)O)C(=O)NCCCCN=C(N)N [E-64, N-[N-3-trans-carboxyoxirane-2-carbonyl)-L-leucyl]agmatine]",inhibition of protease activity (in words),[1]; inhibitor 2.5 µg/ml,not being inhibited
same,remaining activity at 2.5 µg/mL,"[1]; inhibitor 2.5 µg/ml, 1 mg/ml azo-casein, 37°C, 30 min, control without inhibitor = 100%, read-out: Activity of Protease (per Activity of Control%)",108%
CC(C)C[C@H](NC(=O)[C@@H](NC(=O)N[C@@H](Cc1ccccc1)C(=O)O)[C@@H]1CCN=C(N)N1)C(=O)N[C@H](C=O)Cc1ccccc1 [Chymostatin],inhibition of protease activity (in words),[1]; inhibitor 100 µM,inhibited
same,remaining activity at 100 µM,[1]; [3],16.1%
CC(C)CC(=O)N[C@H](C(=O)N[C@H](C(=O)N[C@@H](CC(C)C)[C@@H](O)CC(=O)N[C@@H](C)C(=O)N[C@@H](CC(C)C)[C@@H](O)CC(=O)O)C(C)C)C(C)C [Pepstatin] (Isovaleryl-VV[Sta]A[Sta]-OH),inhibition of protease activity (in words),[1]; inhibitor 100 µM,partially inhibited
same,remaining activity at 100 µM,[1]; [3],67.9%
